In patent US20060030730A1, “Purification and production methods of 1-aminocyclopropanecarboxylic acid” (Daicel Chemical Industries, Ltd., priority 2004, published 2006):

Experiment: Solubility of 1-aminocyclopropanecarboxylic acid in solvents
Format: physicochemical

- solubility in methanol (solvent methanol): about 1.0 % (wt/wt)
- solubility in organic acid having one to five carbon atoms (solvent: organic acid having one to five carbon atoms (e.g. acetic acid)): highly soluble
Structure (SMILES): NC1(C(=O)O)CC1 [1-aminocyclopropanecarboxylic acid]
